Assay results taken from patent US20180111913A1, “SUBSTITUTED BENZOFURAN DERIVATIVES AS NOVEL ANTIMYCOBACTERIAL AGENTS” (priority 2015, published 2018).
Converted amounts (≈) assume the structure as drawn. Like-named read-outs stand apart in the source and are kept apart here.

Assays:
[1] = biological target: Mtb Pks13-TE domain (wild-type) (Mycobacterium tuberculosis, UniProt I6X8D2); assay: biochemical; type: biochemical; conditions: for loss / decrease in inhibitory activity compared to compound I: relative to compound I
Sequence of Mtb Pks13-TE domain (wild-type) (I6X8D2 1451-1733): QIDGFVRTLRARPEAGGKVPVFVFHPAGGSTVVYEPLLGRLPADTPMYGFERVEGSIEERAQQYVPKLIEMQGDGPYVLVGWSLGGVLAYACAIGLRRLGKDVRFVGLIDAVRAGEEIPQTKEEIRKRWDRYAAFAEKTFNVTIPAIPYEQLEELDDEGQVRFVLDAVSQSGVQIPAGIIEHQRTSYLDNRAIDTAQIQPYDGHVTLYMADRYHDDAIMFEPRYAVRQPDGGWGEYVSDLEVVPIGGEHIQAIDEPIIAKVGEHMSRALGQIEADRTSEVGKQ

[2] = test system: Mtb strain mc^27000; assay: microbe, parasite or virus in culture; type: cell-based, Mycobacterium tuberculosis; conditions: for MIC: Mtb mc^27000, liquid medium, 96-well plates, read-out: MIC
[3] = Pks13-TE, 20 μM 4-MUH, read-out: IC50
[4] = Mtb Pks13-TE domain, mean ± s.d. of triplicates, read-out: IC50
[5] = Mycobacterium tuberculosis, read-out: percentage inhibition observed (incomplete inhibition)

| SMILES | IC50 [1, 3] | MIC ([2]; Mycobacterium tuberculosis) | other results |
| --- | --- | --- | --- |
| CCOC(=O)CCCC1CCN(CCCc2c(O)ccc3oc(-c4ccccc4)c(C(=O)OCC)c23)C1 (stereo not drawn) [compound 172] | 0.7 µM | 2.9 µM (≈ 1.47 µg/mL) |  |
| CCOC(=O)CCCC1CCN(CCCc2c(O)ccc3oc(-c4ccccc4)c(C(=O)OCC)c23)C1 (stereo not drawn) [compound 161] | 0.8 µM |  | MIC [2]: 1.0 µM (≈ 0.508 µg/mL) |
| CC[C@@H](CO)NCCc1c(O)ccc2oc(-c3ccccc3)c(C(=O)NC)c12 [compound 235] | 2.3 µM | > 40 µM |  |
| CCOC(=O)c1c(-c2ccccc2)oc2ccc(O)c(CCCN3CC(F)C3)c12 [compound 199] | 2.5 µM | 1.2 µM (≈ 0.477 µg/mL) |  |
| CCOC(=O)c1c(-c2ccccc2)oc2ccc(O)c(CCN3CCOCC3)c12 [compound 229] | 5.8 µM | 3.2 µM (≈ 1.27 µg/mL) |  |
| O=C(c1c(-c2ccccc2)oc2ccc(O)c(CN3CCCCC3)c12)N1CCOCC1 [compound 46] | 0.34 µM | > 20 µM |  |
| CNC(=O)c1c(-c2ccccc2)oc2cccc(CN3CCCCC3)c12 [compound 33] | 45 µM | > 50 µM |  |
| CCOC(=O)c1c(-c2ccccc2)oc2ccc(O)c(CCN3CCC(C#N)CC3)c12 [compound 228] | 3.6 µM | 5 µM (≈ 2.09 µg/mL) |  |
| CCOC(=O)c1c(-c2ccccc2)oc2ccc(OC)c(Cc3ccccc3)c12 [compound 19] | 50 µM | 50 µM (≈ 19.3 µg/mL) |  |
| CCOC(=O)c1c(-c2ccccc2)oc2ccc(O)c(CCCN3CCC(CCCO)C3)c12 (stereo not drawn) [compound 162] | 2.7 µM | 2.5 µM (≈ 1.13 µg/mL) |  |
| CCOC(=O)c1c(-c2ccc(O)cc2)oc2ccc(O)c(CCCN3CCC3)c12 [compound 201] | 2.1 µM | < 0.08 µM |  |
| CCOC(=O)c1c(-c2ccccc2)oc2ccc(O)c(Cc3ccccc3)c12 [compound 10] | 11.9 µM | 40 µM (≈ 14.9 µg/mL) |  |
| CCOC(=O)c1c(-c2ccccc2)oc2ccc(O)c(CCCN3CC[C@@H](O)C3)c12 [compound 175] | 0.95 µM | 6.1 µM (≈ 2.5 µg/mL) |  |
| CNC(=O)c1c(-c2ccccc2)oc2ccc(OC)c(C(O)c3ccccc3)c12 (stereo not drawn) [compound 20] | 50 µM | 50 µM (≈ 19.4 µg/mL) |  |
| CCOC(=O)c1c(-c2ccccc2)oc2ccc(O)c(CCCN3CC[C@H](O)C3)c12 [compound 186] | 0.62 µM | 10 µM (≈ 4.09 µg/mL) |  |
| CCOC(=O)c1c(-c2ccccc2)oc2ccc(O)c(CCN3CCCC(O)C3)c12 (stereo not drawn) [compound 151] | 10 µM |  | MIC [2]: >20 µM |
| CC(C)NCCc1c(O)ccc2oc(-c3ccc(O)cc3)c(C(=O)N(C)C)c12 [compound 209] | 1.8 µM |  | MIC [2]: 0.45 µM (≈ 0.172 µg/mL) |
| CCOC(=O)c1c(-c2ccccc2)oc2ccc(O)c(CCCN3CCSC3C)c12 (stereo not drawn) [compound 174] | 1.25 µM | 4.7 µM (≈ 2 µg/mL) |  |
| CCOC(=O)c1c(-c2ccccc2)oc2ccc(O)c(CCCN3CCC3)c12 [compound 165] | 0.8 µM | 0.08 µM (≈ 0.0304 µg/mL) |  |
| CCOC(=O)c1c(-c2ccccc2)oc2ccc(O)c(CN3CCC(O)CC3)c12 [compound 117] | 0.18 µM | 5.6 µM (≈ 2.21 µg/mL) |  |
| Oc1ccc2nc(-c3ccccc3)[nH]c2c1CN1CCCC1 [compound 110] | 6.8 µM | 22 µM (≈ 6.45 µg/mL) |  |
| CCOC(=O)c1c(-c2ccccc2)oc2ccc(O)c(CCCN3CC[C@H]3CO)c12 [compound 213] | 2.3 µM |  | MIC [2]: 0.97 µM (≈ 0.397 µg/mL) |
| CNC(=O)c1c(-c2ccc(O)cc2)oc2ccc(O)c(CN3CCC(O)CC3)c12 [compound 120] | 0.5 µM | 4.2 µM (≈ 1.67 µg/mL) |  |
| CCOC(=O)c1c(-c2ccc(F)cc2)oc2cc(O)cc(CN3CCCCC3)c12 [compound 49] | 0.4 µM |  | MIC [2]: >10 µM |
| CNC(=O)c1c(-c2ccc(O)cc2)oc2ccc(O)c(CNC3CCCC3)c12 [compound 128] | 1 µM | 1 µM (≈ 0.38 µg/mL) |  |
| CC[C@H](CO)NCCc1c(O)ccc2oc(-c3ccccc3)c(C(=O)NC)c12 [compound 234] | 5.3 µM | > 20 µM |  |
| CCOC(=O)c1c(-c2ccccc2)oc2cc(NC(C)=O)c(O)c(CN3CCCCC3)c12 [compound 28] | 3.1 µM |  | MIC [2]: 20 µM (≈ 8.73 µg/mL) |

| SMILES | IC50 [1, 3] | MIC ([2]; Mycobacterium tuberculosis) | other results |
| --- | --- | --- | --- |
| CNC(=O)c1c(-c2ccc(O)cc2)oc2ccc(O)c(CN3CCC(C(N)=O)CC3)c12 [compound 123] | 1.6 µM | > 40 µM |  |
| CC(C)(C)OC(=O)NC1CCN(C(=O)c2c(-c3ccccc3)oc3ccc(O)c(CN4CCCCC4)c23)CC1 [compound 53] | 0.63 µM |  | MIC [2]: 6.6 µM (≈ 3.52 µg/mL) |
| CNC(=O)c1c(-c2ccccc2)oc2ccc(O)c(CCCN3CCC3)c12 [compound 200] | 4.4 µM | 0.6 µM (≈ 0.219 µg/mL) |  |
| CCOC(=O)c1c(-c2ccccc2)oc2ccc(O)c(CCCN3CC[C@@H]3CO)c12 [compound 212] | 1.94 µM | 1.1 µM (≈ 0.45 µg/mL) |  |
| O=C(O)c1c(-c2ccccc2)oc2ccc(O)c(CN3CCCCC3)c12 [compound 14] |  |  | IC50 [1, 4]: 6.6 ± 0.7 µM; loss / decrease in inhibitory activity compared to compound I [1]: ~20 fold; whole-cell activity (Mtb growth inhibition), in words ([2]; Mtb mc^27000): completely abolished |
| O=S(=O)(Nc1ccc2oc(-c3ccccc3)cc2c1CN1CCC(N2CCCCC2)CC1)C(F)(F)F [compound 100] | > 40 µM |  | inhibition at 20 µM [2, 5]: 6% |
| CNC(=O)c1c(-c2ccccc2)oc2cc(OCC(=O)OC)cc(CN3CCCCC3)c12 [compound 93] | 10 µM |  | inhibition at 40 µM ([2]; Mycobacterium tuberculosis, at 40 μM, read-out: percentage inhibition observed (incomplete inhibition)): 16% |
| CCOC(=O)c1c(-c2ccccc2)oc2ccc(O)c(CCN3CCCC3C(=O)O)c12 (stereo not drawn) [compound 244] | > 40 µM | 20 to 40 µM (≈ 8.47 to 16.9 µg/mL) |  |
| CNC(=O)c1c(-c2ccccc2)oc2ccc(O)c(CCCN3CCCC3)c12 [compound 105] | 5 µM | 5 µM (≈ 1.89 µg/mL) |  |
| CNC(=O)c1c(-c2ccccc2)oc2ccc(O)c(CCNC3CCCC3)c12 [compound 141] | 1.4 µM |  | MIC [2]: 10.0 µM (≈ 3.78 µg/mL) |
| CCOC(=O)c1c(-c2ccccc2)oc2cc(O)cc(CCN)c12 [compound 55] | 4 µM |  | MIC [2]: >20 µM |
| CCOC(=O)c1c(-c2ccccc2)oc2ccc(OC)c(CN3CCCCC3)c12 [compound 23] |  | 35.8 µM (≈ 14.1 µg/mL) | IC50 [1, 4]: 35.8 ± 2.2 µM; IC50 ([1]; Pks13-TE, read-out: IC50 (unit inferred)): ~36 µM; loss / decrease in inhibitory activity compared to compound I [1]: > 100 fold |
| CCOC(=O)c1c(-c2cccc(OC)c2)oc2ccc(O)c(CN3CCCCC3)c12 [compound 48] | 0.36 µM | 1.3 µM (≈ 0.532 µg/mL) |  |
| NC1CCN(C(=O)c2c(-c3ccccc3)oc3ccc(O)c(CN4CCCCC4)c23)CC1 [compound 54] | 5.3 µM | 20 µM (≈ 8.67 µg/mL) |  |
| CCOC(=O)c1c(-c2ccccc2)oc2ccc(O)c(CCN[C@@H](Cc3c[nH]cn3)C(=O)O)c12 [compound 245] | 2.7 µM | > 40 µM |  |
| CNC(=O)c1c(-c2cccnc2)oc2ccc(OC)c(CN3CCCCC3)c12 [compound 112] | 35.8 µM | > 40 µM |  |
| CNC(=O)c1c(-c2ccccc2)oc2ccc(O)c(CCN3CC[C@H](Br)C3)c12 [compound 231] | 5 µM | 8 µM (≈ 3.55 µg/mL) |  |
| O=C(c1c(-c2ccccc2)oc2ccc(O)c(CN3CCCCC3)c12)N1CCCCC1 [compound 43] | 0.32 µM |  | MIC [2]: >10 µM |
| CCOC(=O)c1c(-c2cccc(O)c2)oc2ccc(O)c(CN3CCCCC3)c12 [compound 50] | 0.23 µM |  | MIC [2]: 0.23 µM (≈ 0.091 µg/mL) |
| CCNC(=O)c1c(-c2ccccc2)oc2ccc(O)c(CN3CCCCC3)c12 [compound 18] | 0.36 µM | 14 µM (≈ 5.3 µg/mL) |  |
| CNC(=O)c1c(-c2ccccc2)oc2ccc(O)c(CN3CCCC(CO)C3)c12 (stereo not drawn) [compound 135] | 2 µM | 0.5 µM (≈ 0.197 µg/mL) |  |
| CNC(=O)c1c(-c2ccccc2)oc2cc(OCC(N)=O)cc(CN3CCCCC3)c12 [compound 90] |  |  | inhibition at 40 µM ([1]; at 40 μM, read-out: percentage inhibition observed (IC50 column, incomplete inhibition)): 31%; inhibition at 20 µM [2, 5]: 13% |
| CNC(=O)c1c(-c2cccc(O)c2)oc2ccc(O)c(CN3CCCCC3)c12 [compound 57] | 0.27 µM | 0.44 µM (≈ 0.167 µg/mL) |  |
| CCOC(=O)c1c(-c2ccccc2)oc2cc(OC)cc(CN3CCCCC3)c12 [compound 37] | 29 µM |  | MIC [2]: 7.3 µM (≈ 2.87 µg/mL) |
| CNC(=O)c1c(-c2cccc(O)c2)oc2cc(O)cc(CN3CCCCC3)c12 [compound 89] | 9 µM | 1.2 µM (≈ 0.457 µg/mL) |  |
| CNC(=O)c1c(-c2cccc(OC)c2)oc2ccc(O)c(CN3CCCCC3)c12 [compound 56] | 0.4 µM |  | MIC [2]: 9.0 µM (≈ 3.55 µg/mL) |
| CNC(=O)c1c(-c2ccc(O)cc2)oc2ccc(O)c(CN3CCC(C#N)CC3)c12 [compound 124] | 0.25 µM | 20 µM (≈ 8.11 µg/mL) |  |
